According to patent US6916798B2, “Inhibitors of GSK-3 and uses thereof” (Vertex Pharmaceuticals Incorporated, priority 2001, dated 2005):

target: T1, GSK-3β (AA 1-420) (Homo sapiens, UniProt P49841); experiment: Ki determination for the inhibition of GSK-3, standard coupled enzyme system; assay type: biochemical; settings: 20 μM ATP, 300 μM peptide, 20 nM GSK-3β, 30° C.; read-out: Ki values for GSK-3
T1 construct: GSK-3β (AA 1-420)
Description: Final substrate concentrations in the assay were 20 μM ATP (Sigma Chemicals, St Louis, Mo.) and 300 μM peptide (HSSPHQS(PO3H2)EDEEE, American Peptide, Sunnyvale, Calif.). Reactions were carried out at 30° C. and 20 nM GSK-3β. Final concentrations of the components of the coupled enzyme system were 2.5 mM phosphoenolpyruvate, 300 μM NADH, 30 μg/ml pyruvate kinase and 10 μg/ml lactate dehydrogenase.
An assay stock buffer solution was prepared containing all of the reagents listed above with the exception of ATP and the test compound of interest. The assay stock buffer solution (175 μl) was incubated in a 96 well plate with 5 μl of the test compound of interest at final concentrations spanning 0.002 μM to 30 μM at 30 ° C. for 10 min. […] The reaction was initiated by the addition of 20 μl of ATP (final concentration 20 μM). Rates of reaction were obtained using a Molecular Devices Spectramax plate reader (Sunnyvale, Calif.) over 10 min at 30° C. The Ki values were determined from the rate data as a function of inhibitor concentration.

T1 sequence (P49841 whole entry, the tested form may be a part): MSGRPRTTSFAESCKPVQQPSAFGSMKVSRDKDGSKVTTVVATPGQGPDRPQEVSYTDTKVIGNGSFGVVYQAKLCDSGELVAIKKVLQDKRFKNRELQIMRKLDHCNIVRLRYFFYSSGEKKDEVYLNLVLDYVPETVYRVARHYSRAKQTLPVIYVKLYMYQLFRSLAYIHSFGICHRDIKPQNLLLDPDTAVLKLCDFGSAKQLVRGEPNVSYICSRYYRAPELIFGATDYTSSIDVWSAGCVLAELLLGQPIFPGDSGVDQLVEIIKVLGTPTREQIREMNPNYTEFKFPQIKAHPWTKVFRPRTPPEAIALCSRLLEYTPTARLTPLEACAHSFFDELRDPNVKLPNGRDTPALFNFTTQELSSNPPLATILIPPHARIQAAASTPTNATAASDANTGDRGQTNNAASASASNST

| SMILES | Ki |
| --- | --- |
| COc1ccc(N/N=C2\C(=O)NN=C2c2cccc(OC)c2)cc1 [Compound 50] | < 100 nM |
| COc1ccc(N/N=C2\C(=O)NN=C2c2ccccn2)cc1 [Compound 26] | 100 to 1000 nM |
| CCn1c2ccccc2c2cc(NN=C3C(=O)NN=C3c3ccc(OC)cc3)ccc21 [Compound 217] | < 100 nM |
| COc1cc(C2=NNC(=O)C2=NNc2ccc(OC)c(Br)c2)ccc1O [Compound 225] | < 100 nM |
| COc1ccc(C2=NNC(=O)/C2=N\Nc2ccc(N(C)C)cc2)cc1 [Compound 51] | < 100 nM |
| COc1ccc(C2=NNC(=O)C2=NNc2ccc(OC)c(-c3cccc(N)c3)c2)cc1OC [Compound 105, 4-[(3′-Amino-6-methoxy-biphenyl-3-yl)-hydrazono]-5-(3,4-dimethoxy-phenyl)-2,4-dihydro-pyrazol-3-one] | < 100 nM |
| COc1cccc(C2=NNC(=O)C2=NNc2ccc(-c3ccc(F)cc3)cc2)c1 [Compound 84] | 100 to 1000 nM |
| COc1cc(C2=NNC(=O)C2=NNc2ccc(OC)c(N3CCN(C)CC3)c2)ccc1OCc1ccccc1 [Compound 126, 5-(4-Benzyloxy-3-methoxy-phenyl)-4-{[4-methoxy-3-(4-methyl-piperazin-1-yl)-phenyl]-hydrazono}-2,4-dihydro-pyrazol-3-one] | < 100 nM |
| O=C1NN=C(c2ccc(N3CCOCC3)cc2)C1=NNc1cccc(-c2ccccc2)c1 [Compound 205] | < 100 nM |
| COc1ccc(C2=NNC(=O)C2=NNc2ccc(Oc3ccccc3)cc2)cc1 [Compound 85] | < 100 nM |
| COc1ccc(C2=NNC(=O)C2=NNc2ccc(-c3ccc(F)cc3)cc2)cc1 [Compound 82] | < 100 nM |
| COc1ccc(Nc2ccc(NC=C3C(=O)NN=C3c3ccc(OC)cc3)cc2)cc1 [Compound 224] | 100 to 1000 nM |
| COc1cccc(C2=NNC(=O)C2=NNc2ccc(C(F)(F)F)cc2)c1 [Compound 65] | < 100 nM |
| CCOc1cc(N2CCOCC2)c(OCC)cc1NN=C1C(=O)NN=C1c1ccc(OC)c(OC)c1 [Compound 111, 4-[(2,5-Diethoxy-4-morpholin-4-yl-phenyl)-hydrazono]-5-(3,4-dimethoxy-phenyl)-2,4-dihydro-pyrazol-3-one] | 100 to 1000 nM |
| COc1ccc(C2=NNC(=O)/C2=N\Nc2cccc(Cl)c2)cc1 [Compound 69] | < 100 nM |
| COc1cc(C2=NNC(=O)C2=CNc2cc(C)[nH]n2)cc(OC)c1OC [Compound 227] | 100 to 1000 nM |
| O=C1NN=C(c2ccncc2)/C1=N/Nc1ccccc1Cl [Compound 16] | 100 to 1000 nM |
| O=C1NN=C(c2ccccc2)/C1=N/Nc1ccccc1Cl [Compound 12] | 100 to 1000 nM |
| CCN(CC)c1ccc(NN=C2C(=O)NN=C2c2cc(OC)c(OC)c(OC)c2)cc1 [Compound 38] | 100 to 1000 nM |
| COc1ccc(NN=C2C(=O)NN=C2c2ccc3c(c2)OCO3)cc1 [Compound 48] | < 100 nM |
| COc1ccc(C2=NNC(=O)C2=NNc2ccc3c(c2)OCO3)cc1 [Compound 213] | < 100 nM |
| COc1ccc(C2=NNC(=O)C2=NNc2ccc(C(F)(F)F)cc2)cc1OC [Compound 64] | < 100 nM |
| COc1ccc(C2=NNC(=O)C2=NNc2ccc(OC)c(-c3cc(OC)c(OC)c(OC)c3)c2)cc1OC [Compound 109, 5-(3,4-Dimethoxy-phenyl)-4-[(6,3′,4′,5′-tetramethoxy-biphenyl-3-yl)-hydrazono]-2,4-dihydro-pyrazol-3-one] | < 100 nM |
| COc1ccc(C2=NNC(=O)C2=NNc2ccc3c(c2)C(=O)c2ccccc2-3)cc1OC [Compound 207] | < 100 nM |
| COc1ccc(C2=NNC(=O)/C2=N\Nc2ccc(C#N)cc2)cc1 [Compound 57] | < 100 nM |
| COc1ccc(C2=NNC(=O)C2=NNc2cccc(C(F)(F)F)c2)cc1OC [Compound 67] | < 100 nM |
| COc1ccc(C2=NNC(=O)C2=NNc2ccc(OC)c(-c3ccccc3)c2)cc1 [Compound 220] | < 100 nM |
| O=C1NN=C(c2ccccn2)/C1=N/Nc1ccccc1Cl [Compound 14] | 100 to 1000 nM |

| SMILES | Ki |
| --- | --- |
| COc1cccc(C2=NNC(=O)C2=NNc2cccc(C(F)(F)F)c2)c1 [Compound 68] | < 100 nM |
| COc1cc(N2CCOCC2)ccc1NN=C1C(=O)NN=C1c1ccc(OC)c(OC)c1 [Compound 40] | 100 to 1000 nM |
| COc1ccc(C2=NNC(=O)C2=NNc2ccc(Br)cc2)cc1 [Compound 54] | < 100 nM |
| COc1cccc(C2=NNC(=O)C2=NNc2ccc(Br)cc2)c1 [Compound 56] | < 100 nM |
| COc1ccc(NN=C2C(=O)NN=C2c2ccc(C#N)cc2)cc1 [Compound 76] | 100 to 1000 nM |
| O=C1NN=C(c2ccc3c(c2)OCO3)C1=NNc1ccc(Cl)cc1 [Compound 45] | < 100 nM |
| COc1cccc(C2=NNC(=O)C2=NNc2ccc([N+](=O)[O-])cc2)c1 [Compound 78] | < 100 nM |
| COc1ccc(C2=NNC(=O)C2=NNc2cccc(-c3ccccc3)c2)cc1 [Compound 203] | < 100 nM |
| COc1cccc(N/N=C2\C(=O)NN=C2c2cccc(OC)c2)c1 [Compound 74] | < 100 nM |
| COc1cccc(C2=NNC(=O)/C2=N\Nc2cccc(Cl)c2)c1 [Compound 71] | < 100 nM |
| CC1=NNC(=O)/C1=N\Nc1ccccc1Cl [Compound 8] | 100 to 1000 nM |
| COc1ccc(C2=NNC(=O)C2=NNc2cccc(Oc3ccccc3)c2)cc1 [Compound 88] | < 100 nM |
| COc1cccc(C2=NNC(=O)C2=NNc2cccc(Oc3ccccc3)c2)c1 [Compound 90] | < 100 nM |
| COc1cccc(C2=NNC(=O)/C2=N\Nc2ccc(N(C)C)cc2)c1 [Compound 53] | < 100 nM |
| N#Cc1ccc(C2=NNC(=O)C2=NNc2ccc(Cl)cc2)cc1 [Compound 75] | < 100 nM |
| COc1ccc(C2=NNC(=O)C2=NNc2ccc(OC)c(N3CCOCC3)c2)cc1OC [Compound 123, 5-(3,4-Dimethoxy-phenyl)-4-[(4-methoxy-3-morpholin-4-yl-phenyl)-hydrazono]-2,4-dihydro-pyrazol-3-one] | < 100 nM |
| COc1ccc(NN=C2C(=O)NN=C2c2cc(OC)c(OC)c(OC)c2)cc1N1CCOCC1 [Compound 124, 4-[(4-Methoxy-3-morpholin-4-yl-phenyl)-hydrazono]-5-(3,4,5-trimethoxy-phenyl)-2,4-dihydro-pyrazol-3-one] | < 100 nM |
| O=C1NN=C(c2cccnc2)/C1=N/Nc1ccccc1Cl [Compound 15] | 100 to 1000 nM |
| COc1cc(C2=NNC(=O)C2=NNc2ccc(N3CCOCC3)cc2OC)ccc1O [Compound 113, 5-(4-Hydroxy-3-methoxy-phenyl)-4-[(2-methoxy-4-morpholin-4-yl-phenyl)-hydrazono]-2,4-dihydro-pyrazol-3-one] | 100 to 1000 nM |
| COc1ccc(N/N=C2\C(=O)NN=C2c2ccncc2)cc1 [Compound 21] | < 100 nM |
| COc1ccc(C2=NNC(=O)C2=NNc2cccc(C(F)(F)F)c2)cc1 [Compound 66] | < 100 nM |
| COc1ccc(C2=NNC(=O)C2=NNc2ccc3c(c2)C(=O)c2ccccc2-3)cc1 [Compound 206] | < 100 nM |
| COc1cccc(C2=NNC(=O)/C2=N\Nc2ccc(C#N)cc2)c1 [Compound 59] | < 100 nM |
| COc1ccc(C2=NNC(=O)C2=NNc2ccc(Br)cc2)cc1OC [Compound 55] | < 100 nM |
| COc1cccc(C2=NNC(=O)/C2=N\Nc2ccc(Cl)cc2)c1 [Compound 49] | < 100 nM |
| COc1ccc(C2=NNC(=O)C2=NNc2ccc(C(F)(F)F)cc2)cc1 [Compound 63] | < 100 nM |
| O=C1NN=C(c2ccncc2)C1=NNc1ccc(Cl)cc1 [Compound 24] | < 100 nM |
